In patent US5274141A, “Designed quinone- and hydroquinone-containing cyclic enediyneols and enediyneones having DNA cleaving and cytotoxic properties” (The Scripps Research Institute, priority 1992, dated 1993):
Like-named read-outs stand apart in the source and are kept apart here.

Columns and labels:
[1] = system: Normal Human Dermal Fibroblast (NHDF); experiment: Sulforhodamine B cytotoxicity assay, NHDF; format: cell-based; conditions: for toxicity to NHDF cells compared: compared with well known anticancer drugs
Description: (§1) In addition to the DNA cleavage screening already discussed, several of the before-described compounds were screened against a panel of twelve cancerous cell lines as target cells and four "normal" cell preparations. This screening utilized a sulforhodamine B cytotoxicity assay as discussed below.
(§2) SULFORHODAMINE B CYTOTOXICITY ASSAY
(§3) 1. Preparation of target cells in 96-well plates
(§4) 2. Preparation of sample drugs and toxic control
(§5) 3. Addition of Sample Drugs, Compounds and Controls to 96-well Plates
(§6) f. Incubate (37° C., 5-10 percent CO2 in humidified incubator) plates for a total of 72 hours. Check plates at 24 hour intervals microscopically for signs of cytotoxicity.
(§7) IC50 values; i.e., the concentration of Compound required to kill one-half of the treated cells, where then calculated.
(§8) The cell lines assayed are listed below along with their respective sources:
(§9) Separate control studies were also carried out using the following well known anticancer drugs with the following IC50 values for NHDF and cancer cells.

[2] = system: UCLA P-3 (Lung Carcinoma); experiment: Sulforhodamine B cytotoxicity assay, UCLA P-3; format: cell-based; conditions: Homo sapiens, 72 hours
Description: as §1, §2, §3, §4, §5, §6, §7
(§10) The cell lines assayed are listed below along with their respective sources: […]

[3] = system: P-388 (Mouse Leukemia); experiment: Sulforhodamine B cytotoxicity assay, P-388; format: cell-based; conditions: P388, 72 hours
Description: as §1, §2, §3, §4, §5, §6, §7, §10

[4] = system: Normal Human Epidermal Keratinocytes (NHEK); experiment: Sulforhodamine B cytotoxicity assay, NHEK; format: cell-based; conditions: 72 hours
Description: as §1, §2, §3, §4, §5, §6, §7, §10

[5] = system: Molt-4 (T-Cell Leukemia); experiment: Sulforhodamine B cytotoxicity assay, Molt-4; format: cell-based; conditions: Homo sapiens
Description: as §1, §2, §3, §4, §5, §6, §7, §10

[6] = Stability observed during synthesis; format: physicochemical
Description: Finally, PCC oxidation (4.0 equivalents PCC, 4Å molecular sieves in CH2 Cl2 at 25° C. for 0.5 hour) of Compound 8 afforded the tricarbonyl Compound 10 in 49 percent yield as step i.

[7] = system: HT-29 (Colon Carcinoma); experiment: Sulforhodamine B cytotoxicity assay, HT-29; format: cell-based; conditions: Homo sapiens, 72 hours
Description: as §1, §2, §3, §4, §5, §6, §7, §10

[8] = system: Chinese Hamster Ovary (CHO); experiment: Sulforhodamine B cytotoxicity assay, CHO; format: cell-based; conditions: Cricetulus griseus, normal, 72 hours
Description: as §1, §2, §3, §4, §5, §6, §7, §10

[9] = system: φX174 form I DNA; experiment: Cleavage of cell-free supercoiled DNA, agarose gel electrophoresis; format: biochemical; conditions: pH 7.4, 37° C., 15 hours
Description: FIG. 1 is a photograph of an ethidium bromide stained 1 percent agarose electrophoresis gel o that illustrates the cleavage of .phi.X174 form I DNA (100 μM base pairs) by Compounds 7, 8, 9, 10 and 12 at 50-5000 μM after 15 hours at 37° C. at a pH value of 7.4 in 50 […]. […] Lanes 2-10 correspond to the following: Lane 2: Compound 12 (100 μM); Lane 3: Compound 10 (100 μM); Lane 4: Compound 7 (100 μM); Lane 5: Compound 8 (100 μM); Lanes 6-10: Compound 9 (50, 100, 500, 1000 and 5000 μM). Forms I, II and III shown to the left of the photograph show the relative migrations of supercoiled (form I) relaxed (form II) and linear (form III) DNA, respectively.
To a vial containing 9 microliters of a cell-free .phi.X174 Type I double-stranded DNA in pH 7.4 […] Tris-HCl buffer was added 1 microliter of a 1.0 millimolar or other appropriate ethanol solution of Compounds 7, 8, 9, 10 and 12.
The vials were then placed in a 37° C. oven for 15 hours. A 2.0 microliter portion of glycerol loading buffer solution containing bromothymol blue indicator was added to each vial. A 10 microliter aliquot was then drawn from each. Gel electrophoresis analysis of the aliquots was performed using a 1.0 percent agarose gel with ethidium bromide run at 115 volts for one hour. DNA cleavage was indicated by the formation of Type II DNA, which was detected by visual inspection of the gel under 310 nanometer ultraviolet light.

[10] = system: MCF-7 (Breast Carcinoma); experiment: Sulforhodamine B cytotoxicity assay, MCF-7; format: cell-based; conditions: Homo sapiens, MCF7, 72 hours
Description: as §1, §2, §3, §4, §5, §6, §7, §10

[11] = system: HL-60 (Promyeocytic Leukemia); experiment: Sulforhodamine B cytotoxicity assay, HL-60; format: cell-based; conditions: Homo sapiens, 72 hours
Description: as §1, §2, §3, §4, §5, §6, §7, §10

[12] = system: H-322 (Lung Carcinoma); experiment: Sulforhodamine B cytotoxicity assay, H-322; format: cell-based; conditions: Homo sapiens, NCI-H322, 72 hours
Description: as §1, §2, §3, §4, §5, §6, §7, §10

[13] = system: Human Mammary Epithelial Cells (HMEC); experiment: Sulforhodamine B cytotoxicity assay, HMEC; format: cell-based; conditions: normal, 72 hours
Description: as §1, §2, §3, §4, §5, §6, §7, §10

[14] = Cycloaromatization studies using 1,4-cyclohexadiene in toluene; format: physicochemical
Description: These reactions provided Compounds 11-13 as shown schematically in Scheme 2, below. [drawing 9]

[15] = system: SK-Mel-28 (Melanoma); experiment: Sulforhodamine B cytotoxicity assay, SK-Mel-28; format: cell-based; conditions: Homo sapiens, 72 hours
Description: as §1, §2, §3, §4, §5, §6, §7, §10

[16] = system: Capan-1 (Pancreatic Carcinoma); experiment: Sulforhodamine B cytotoxicity assay, Capan-1; format: cell-based; conditions: Homo sapiens, 72 hours
Description: as §1, §2, §3, §4, §5, §6, §7, §10

[17] = system: Ovcar-3 (Ovarian Carcinoma); experiment: Sulforhodamine B cytotoxicity assay, Ovcar-3; format: cell-based; conditions: Homo sapiens, 72 hours
Description: as §1, §2, §3, §4, §5, §6, §7, §10

[18] = system: SIHA (Cervical Carcinoma); experiment: Sulforhodamine B cytotoxicity assay, SIHA; format: cell-based; conditions: Homo sapiens, 72 hours
Description: as §1, §2, §3, §4, §5, §6, §7, §10

[19] = system: Cancer Cells; experiment: cells; format: cell-based, human or mouse
Description: as §1, §2, §3, §4, §5, §6, §7, §8, §9

[20] = system: 786-0 (Renal Carcinoma); experiment: Sulforhodamine B cytotoxicity assay, 786-0; format: cell-based; conditions: Homo sapiens, 72 hours
Description: as §1, §2, §3, §4, §5, §6, §7, §10

[21] = Homo sapiens, control anticancer drugs, read-out: Range of Average IC50 Values, NHDF
[22] = control anticancer drugs, read-out: Range of Average IC50 Values, NHDF
[23] = MOLT-4, 72 hours, read-out: IC50 Values
[24] = 110° C., 1,4-cyclohexadiene in toluene
[25] = Homo sapiens, normal, 72 hours, read-out: IC50 Values
[26] = Molt-4 leukemia cells, read-out: IC50
[27] = 55° C., 1,4-cyclohexadiene in toluene

Row | Compound | IC50 [2] [µM] | IC50 [4] [µM] | IC50 [5, 23] [µM] | IC50 [7] [µM] | IC50 [8] [µM] | DNA cleaving activity [9] | IC50 [10] [µM] | IC50 [11] [µM] | IC50 [12] [µM] | IC50 [13] [µM] | IC50 [15] [µM] | IC50 [16] [µM] | IC50 [1, 25] [µM] | IC50 [17] [µM] | further results
1 | N[C@@H](Cc1ccc(N(CCCl)CCCl)cc1)C(=O)O [Melphelan, reference compound] |  |  |  |  |  |  |  |  |  |  |  |  |  |  | IC50 ([1]; Homo sapiens, read-out: Range of Average IC50 Values, NHDF): 100 µM
2 | CC(=O)O[C@H]1C(=O)[C@@]2(C)[C@H]([C@H](OC(=O)c3ccccc3)[C@]3(O)C[C@H](OC(=O)[C@H](O)[C@@H](NC(=O)c4ccccc4)c4ccccc4)C(C)=C1C3(C)C)[C@]1(OC(C)=O)CO[C@@H]1C[C@@H]2O [Taxol, reference compound] |  |  |  |  |  |  |  |  |  |  |  |  |  |  | IC50 [1, 21]: 0.01 µM
3 | N.N.[Cl][Pt][Cl] [Cis-Platin, reference compound] |  |  |  |  |  |  |  |  |  |  |  |  |  |  | IC50 [1, 22]: 50 µM
4 | Cc1c(C)c(O)c2c(c1O)C#CCCCC(O)C#C2 (centres unmarked) [Compound 9] | 25 | 13 | 50 | 25 | 13 | significant DNA damaging properties | 25 | 1.6 | 25 | 25 | 25 | 13 | 25 | 25 | IC50 [3]: 3.1 µM; air sensitivity [6]: air-sensitive; stability ([6]; neutral conditions): relatively stable; cycloaromatization behaviour [14, 24]: complicated kinetics due to ease of conversion to Compound 8 even under oxygen extrusion conditions, but seems quite stable prior to oxidation
5 | CC1=C(C)C(=O)c2cc3c(cc2C1=O)CCCC3O (centres unmarked) [Compound 12] |  |  |  |  |  | minor activity |  |  |  |  |  |  |  |  | 
6 | CN(Cc1cnc2nc(N)nc(N)c2n1)c1ccc(C(=O)N[C@@H](CCC(=O)O)C(=O)O)cc1 [Methotrexate, reference compound] |  |  |  |  |  |  |  |  |  |  |  |  |  |  | IC50 [1, 21]: 50 µM
7 | COC1=C(C(=O)O)[C@H](C)[C@@]23O[C@]24c2cc(O)c5c(c2N[C@H]3C#C/C=C\C#C[C@H]14)C(=O)c1c(O)ccc(O)c1C5=O [Dynemicin A, reference compound] |  |  |  |  |  |  |  |  |  |  |  |  |  |  | IC50 [1, 22]: 0.01 µM
8 | CC1=C(C)C(=O)C2=C(C#CCCCC(O)C#C2)C1=O (centres unmarked) [Compound 8] | 6.3 | 3.1 | 0.1 | 6.3 | 3.2 | significant DNA damaging properties | 6.3 | 7.8 | 13 | 3.1 | 6.3 | 3.1 | 3.1 | 6.3 | IC50 [3]: 2 µM; IC50 [5, 26]: 0.5 µM; thermal stability [6]: thermally labile; half life (t1/2) of cycloaromatization [14, 27]: 2.6 h; toxicity to NHDF cells compared [1]: similarly toxic to the normal NHDF and cancer cells except Molt-4 cells
9 | Cc1c(C)c(OC(=O)C(C)(C)C)c2c(c1OC(=O)C(C)(C)C)C#CCCCC(O)C#C2 (centres unmarked) [Compound 7] | 13 | 25 | 100 | 13 | 100 | no DNA cleaving activity | 50 | 100 | 100 | 100 | 100 | 13 | 100 | 13 | IC50 [3]: 13 µM; stability ([6]; ambient temperature): quite stable; half life (t1/2) of cycloaromatization [14, 24]: 74 h
10 | CC1=C(C)C(=O)C2=C(C#CCCCC(=O)C#C2)C1=O [Compound 10] | 50 | 100 | 1.19 | 50 | 100 | significant DNA damaging properties | 13 | 25 | 100 | 100 | 100 | 100 | 100 | 25 | IC50 [18]: 13 µM; potency in cytotoxicity studies ([19]; variety of cell lines, in words): most impressive results; IC50 [5, 26]: 1 µM; IC50 [20]: 50 µM; half life (t1/2) of cycloaromatization [14, 27]: 0.533 h; reactivity in cycloaromatization studies ([14]; series 7-10): most reactive member of the series 7-10; toxicity to NHDF cells compared [1]: less toxic than those well known anticancer drugs against the NHDF cells
11 | Calicheamicin [reference compound] |  |  |  |  |  |  |  |  |  |  |  |  |  |  | IC50 [1, 22]: 0.0025 µM
12 | COc1cccc2c1C(=O)c1c(O)c3c(c(O)c1C2=O)C[C@@](O)(C(=O)CO)C[C@@H]3O[C@H]1C[C@H](N)[C@H](O)[C@H](C)O1 [Doxorubicin, reference compound] |  |  |  |  |  |  |  |  |  |  |  |  |  |  | IC50 ([19]; control anticancer drugs, cancer cells, read-out: Range of Average IC50 Values, Cancer Cells): 0.00016 to 0.098 µM
